Several values for one entry are separate records, joined by “and”; a condition that tells them apart may be missing. Equal entries are not always repeated.
target: Dihydroorotate dehydrogenase (quinone), mitochondrial (Homo sapiens, UniProt Q02127); assay: DHODH enzymatic assay
Protocol: To detect DHODH enzyme activities, dichloroindophenol (DCIP) is added as the final electron acceptor in the assay. DCIP can accept electrons from the reduced coenzyme Q generated in the assay, or from dihydroorotate (DHO) via FMN by binding presumably to the ubiquinone pocket. DCIP solutions are blue, with an intense absorbance around 600 nm, but becomes colorless upon reduction (J. Biol. Chem. (1986) 261, 11386). The assay buffer contained […], pH 7.5, 150 mM NaCl, 0.5 mM EDTA, and 0.1% Triton X-100 in MilliQ water. Substrate consisting of 20 mM DHO, 5mM CoQ6, and 1mM DCIP in assay buffer, initiates the reaction. The assay is run in end-point mode by quenching the reaction with the potent DHODH inhibitor brequinar. Absorbance measurements were obtained using the BMG Phera Star plate-reading spectrophotomer. Purified human DHODH was purchased from Proteros (cat. No. PR-0044). Chemicals were purchased from Sigma-Aldrich, Teknova, and Avanti Polar Lipids. Liquid handling was performed using Labcyte Echo and Formulatrix Tempest.

Sequence of Dihydroorotate dehydrogenase (quinone), mitochondrial (Q02127 whole entry): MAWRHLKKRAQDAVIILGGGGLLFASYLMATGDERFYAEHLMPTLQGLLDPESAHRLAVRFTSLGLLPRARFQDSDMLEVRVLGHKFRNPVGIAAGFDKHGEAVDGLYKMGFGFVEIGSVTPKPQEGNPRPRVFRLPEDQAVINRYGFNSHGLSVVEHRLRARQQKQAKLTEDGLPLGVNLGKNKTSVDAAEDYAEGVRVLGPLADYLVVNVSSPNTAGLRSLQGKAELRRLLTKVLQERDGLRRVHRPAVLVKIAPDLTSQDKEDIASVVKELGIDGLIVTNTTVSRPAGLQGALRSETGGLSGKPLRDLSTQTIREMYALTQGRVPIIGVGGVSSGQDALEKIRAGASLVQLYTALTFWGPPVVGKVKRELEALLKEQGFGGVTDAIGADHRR

Row | SMILES | IC50
1 | Cc1ccnc(Cl)c1-n1cc(C(C)C)c2cc(-c3cn(C)c(C(C)(C)O)n3)c(F)cc2c1=O [WO2022070068, Example 18] | 2 nM
2 | CCn1nc(-c2cc3c(C(C)C)cn(-c4ccccc4C)c(=O)c3cc2F)nc1C(C)(C)O [WO2022070068, Example 20] | 27 nM
3 | Cc1ccccc1-n1nc(C(C)C)c2cc(-c3cn(C)c([C@@H](C)O)n3)c(F)cc2c1=O [WO2022070068, Example 15] | 2.6 nM
4 | Cc1ccccc1-n1cc(C(C)C)c2cc(-c3cn(C)c([C@H](C)O)n3)c(F)cc2c1=O [WO2022070068, Example 10] | 0.73 nM
5 | COc1cc(-n2cc(C(C)C)c3cc(-c4cn(C)c(C(C)(C)O)n4)c(F)cc3c2=O)c(C)cn1 [WO2022070068, Example 25] | 1.2 nM
6 | Cc1ccccc1-n1cc(C(C)C)c2cc(-c3nc([C@H](C)O)n(C)n3)c(F)cc2c1=O [WO2022070068, Example 13] | 0.48 nM and 1.1 nM
7 | Cc1ccccc1-n1cc(C(C)C)c2cc(-c3ccc(C)c(N)n3)c(F)cc2c1=O [WO2022070068, Example 2] | 0.18 nM
8 | CCn1nc(-c2cc3c(C(C)C)cn(-c4ccccc4C)c(=O)c3cc2F)nc1C(C)O (stereo not given) [WO2022070068, Example 28] | 19 nM
9 | Cc1ccccc1-n1cc(C(C)C)c2cc(-c3cn(C)c(CO)n3)c(F)cc2c1=O [WO2022070068, Example 8] | 1.2 nM
10 | Cc1ccccc1-n1cc(C(C)C)c2cc(-c3cn(C)c([C@@H](C)O)n3)c(F)cc2c1=O [WO2022070068, Example 11] | 0.51 nM
11 | Cc1cnc(-c2cc3c(C(C)C)cn(-c4ccccc4C)c(=O)c3cc2F)cc1N [WO2022070068, Example 3] | 3.6 nM
12 | Cc1ccccc1-n1cc(C(C)C)c2cc(-c3nc([C@@H](C)O)n(C)n3)c(F)cc2c1=O [WO2022070068, Example 12] | 1.6 nM and 2 nM
13 | COc1cc(-n2cc(C(C)C)c3cc(-c4nc(C(C)(C)O)n(C)n4)c(F)cc3c2=O)c(C)cn1 [WO2022070068, Example 26] | 1.2 nM
14 | Cc1ccccc1-n1cc(C(C)C)c2cc(-c3cn(C)c(C(C)(C)O)n3)c(F)cc2c1=O [WO2022070068, Example 23] | 0.38 nM and 0.54 nM
15 | Cc1ccccc1-n1cc(C(C)C)c2cc(-c3nc(C(C)O)n(C)n3)c(F)cc2c1=O (racemic) [WO2022070068, Example 5] | 1.1 nM
16 | Cc1ccccc1-n1cc(C(C)C)c2cc(-c3cnc(C4CC4)cn3)c(F)cc2c1=O [WO2022070068, Example 1] | 2.6 nM
17 | CC(=O)c1nc(-c2cc3c(C(C)C)cn(-c4ccccc4C)c(=O)c3cc2F)nn1C [WO2022070068, Example 6] | 1.7 nM
18 | Cc1ccnc(Cl)c1-n1cc(C(C)C)c2cc(-c3nc(C(C)(C)O)n(C)n3)c(F)cc2c1=O [WO2022070068, Example 19] | 2.5 nM
19 | Cc1ccccc1-n1cc(C(C)C)c2cc(-c3nc(C(C)(C)O)n(C)n3)c(F)cc2c1=O [WO2022070068, Example 29] | 0.57 nM and 0.64 nM
20 | Cc1n[nH]c(Cl)c1-n1cc(C(C)C)c2cc(-c3nc(C(C)(C)O)n(C)n3)c(F)cc2c1=O [WO2022070068, Example 17] | 0.71 nM
21 | Cc1ccc(Cl)c(-n2cc(C(C)C)c3cc(-c4cn(C)c(C(C)(C)O)n4)c(F)cc3c2=O)n1 [WO2022070068, Example 27] | 1.4 nM
22 | Cc1ccccc1-n1nc(C(C)C)c2cc(-c3cn(C)c(C(C)(C)O)n3)c(F)cc2c1=O [WO2022070068, Example 14] | 0.45 nM
23 | Cc1n[nH]c(Cl)c1-n1cc(C(C)C)c2cc(-c3cn(C)c(C(C)(C)O)n3)c(F)cc2c1=O [WO2022070068, Example 16] | 0.51 nM
24 | Cc1ccccc1-n1cc(C(C)C)c2cc(-c3nc(CO)n(C)n3)c(F)cc2c1=O [WO2022070068, Example 9] | 2.6 nM
25 | CCn1nc(-c2cc3c(C(C)C)cn(-c4ccccc4C)c(=O)c3cc2F)nc1C(C)=O [WO2022070068, Example 24] | 6.2 nM

— BindingDB's records for patent WO2022070068 (JANSSEN BIOTECH, INC., 2022)
